pIC50: −log10 of the molar value.
How the values were obtained:
CYP2C19 = molecular target: T1, CYP2C19 (Homo sapiens, UniProt P33261); assay: Cocktail assay for CYPs in human liver microsomes, mephenytoin 4′-hydroxylation (2C19); assay type: biochemical; details: 30 μM mephenytoin, 10 min at 37° C.
T1 construct: 0.1 mg/mL protein human liver microsomes (BD Gentest); tissue BD Gentest; host or cells: human liver microsomes
Protocol: (§1) This assay was performed in a standard 96-well plate design. IC50 values were calculated from the percent inhibition observed for each test compound at 6 concentrations (for example, 0.0032, 0.016, 0.08, 0.4, 2 and 10 μM). The incubation substrate mix contains 10 μM phenacetin (1A2), 5 μM diclofenac (2C9), 30 μM mephenytoin (2C19), 5 μM dextromethorphan (2D6) and 2 μM midazolam (3A4), 0.1 mg/mL protein human liver microsomes (BD Gentest), 1 mM NAPDH, 3.3 mM MgCl2 and 100 mM potassium phosphate buffer (pH 7.4). The production of the metabolite of each probe substrate was determined after incubation for 10 min at 37° C. Quantitation of the metabolite peak area ratio against an internal standard (tolbutamide) was determined by LC/MS/MS analysis following acetonitrile treatment of the incubations.
(§2) Samples were analyzed in the MRM mode with a SCIEX API-4000 mass spectrometer (Applied Biosystems, Foster City, Calif.), with a Shimadzu LC-20 AD pump (Shimadzu corporation, Kyoto, JP) and a CTC PAL autosampler (Agilent Technologies, Switzerland). A Phenomenex, Luna, 5 μm, 100A, 2.00×30 mm HPLC column was used for the separation. The mobile phases were: (A) 0.1% formic acid in water and (B) 0.1% formic acid in acetonitrile. The binary gradient was as follows. AutoSampler: CTC PAL
(§3) The peak area ratio of the analyte to the internal standard was used to quantify the metabolite. The values of peak area ratios in the presence of test compound were compared to those of maximum or minimum controls and were expressed as % inhibition by interpolating between the maximum and minimum peak area ratios. Incubations with no inhibitor were defined as the maxima. The following equation was used to calculate the % inhibition: [1−[(X−Low control)/(High control−Low control)]]*100 For the IC50 calculation, SigmaPlot was used to plot the mean % inhibition versus the test compound concentrations and for non-linear regression analysis of the data. Depending on the range of data points defining the inhibition curve, the data may have been fit to the 4-parameter logistic equation.

human CYP11B2 = molecular target: T2, human CYP11B2 (Homo sapiens, UniProt P19099); assay: IC50 vs CYP11B2 by measurement of aldosterone synthesis in V79 cells; assay type: cell-based; details: V79 cells expressing human CYP11B2, 750 nM DOC, aldosterone HTRF
T2 construct: expressed in transfected cells
T2 sequence (P19099 25-503): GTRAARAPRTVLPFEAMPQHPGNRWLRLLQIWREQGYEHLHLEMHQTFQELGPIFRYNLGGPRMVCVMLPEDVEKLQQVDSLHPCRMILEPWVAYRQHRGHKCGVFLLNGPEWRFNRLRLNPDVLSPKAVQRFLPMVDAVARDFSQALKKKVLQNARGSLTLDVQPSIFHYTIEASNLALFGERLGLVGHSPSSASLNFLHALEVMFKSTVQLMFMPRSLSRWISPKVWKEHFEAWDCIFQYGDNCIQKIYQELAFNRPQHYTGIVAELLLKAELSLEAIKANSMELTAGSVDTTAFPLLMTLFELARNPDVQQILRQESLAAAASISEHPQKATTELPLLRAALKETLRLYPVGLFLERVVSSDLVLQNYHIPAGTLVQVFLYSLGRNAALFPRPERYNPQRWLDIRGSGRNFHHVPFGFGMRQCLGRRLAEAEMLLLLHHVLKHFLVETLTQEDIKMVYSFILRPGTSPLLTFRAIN
Protocol: (§4) This assay was performed in a standard 384-well plate design using cultured V79 cells stably expressing human CYP11B1 or human CYP11B2. Test compounds at 10 concentrations (for example, 10000, 3333.3, 1111.1, 370.4, 123.5, 41.2, 13.7, 4.6, 1.5 and 0.5 nM) were added in 384-well plate after the cell-seeding procedure. The incubation substrate contains 1500 nM RSS for CYP11B1 assay/750 nM DOC for CYP11B2 assay. The Cortisol/Aldosterone production of cell culture supernatant was determined by Cortisol/Aldosterone HTRF kit after for about 15 hours incubation at RT (protect from light). IC50 (nM) values were calculated from the percent inhibition observed for each test compound at 10 concentrations.
(§5) The assay plate was read using Envision (Perkin Elmer, Waltham, Mass.) at 665 nm and 590 nm (using Filter Barcode of 217#, 205#; Mirror Barcode of 446#).
(§6) Data are analyzed using Assay Data Analyzer. All ratio data (665 nm/590 nm) are back calculated according to the standard curve, resulting in Cortisol/Aldosterone concentrations. IC50 (nM) values are reported as the Inflection Point (IP) of a four parameter fit of the titration data.
(§7) The following equation was used to calculate the % inhibition: % Activity=100×{1−(Sample_back calculated Cortisol/Aldosterone concentration−LC_back calculated Cortisol/Aldosterone concentration)/(HC_back calculated Cortisol/Aldosterone concentration−LC_back calculated Cortisol/Aldosterone concentration)} Curve Fitting: Four Parameter Logistic: […]

CYP3A4 = molecular target: T3, CYP3A4 (Homo sapiens, UniProt P08684); assay: Cocktail assay for CYPs in human liver microsomes, midazolam 1′-hydroxylation (3A4); assay type: biochemical; details: 2 μM midazolam, 10 min at 37° C.
T3 construct: 0.1 mg/mL protein human liver microsomes (BD Gentest); tissue BD Gentest; host or cells: human liver microsomes
Protocol: as §1, §2, §3

CYP2D6 = molecular target: T4, CYP2D6 (Homo sapiens, UniProt P10635); assay: Cocktail assay for CYPs in human liver microsomes, dextromethorphan O-demethylation (2D6); assay type: biochemical; details: 5 μM dextromethorphan, 10 min at 37° C.
T4 construct: 0.1 mg/mL protein human liver microsomes (BD Gentest); tissue BD Gentest; host or cells: human liver microsomes
Protocol: as §1, §2, §3

human CYP11B1 = molecular target: T5, human CYP11B1 (Homo sapiens, UniProt P15538); assay: IC50 vs CYP11B1 by measurement of cortisol synthesis in V79 cells; assay type: cell-based; details: V79 cells expressing human CYP11B1, 1500 nM RSS, cortisol HTRF
T5 construct: expressed in transfected cells
T5 sequence (P15538 25-503): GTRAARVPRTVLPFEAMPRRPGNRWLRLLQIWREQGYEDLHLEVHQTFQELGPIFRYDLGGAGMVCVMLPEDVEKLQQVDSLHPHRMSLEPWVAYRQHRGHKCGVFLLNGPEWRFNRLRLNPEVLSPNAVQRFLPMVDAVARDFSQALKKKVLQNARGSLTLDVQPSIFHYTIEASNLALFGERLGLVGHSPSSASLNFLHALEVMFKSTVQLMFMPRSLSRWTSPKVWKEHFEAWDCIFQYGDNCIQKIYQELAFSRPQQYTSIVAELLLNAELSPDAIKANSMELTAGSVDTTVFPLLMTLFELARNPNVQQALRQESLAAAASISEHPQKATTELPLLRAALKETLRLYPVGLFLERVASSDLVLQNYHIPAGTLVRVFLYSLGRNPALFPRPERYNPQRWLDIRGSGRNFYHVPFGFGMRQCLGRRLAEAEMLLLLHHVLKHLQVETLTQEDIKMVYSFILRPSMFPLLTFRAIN
Protocol: as §4, §5, §6, §7

CYP2C9 = molecular target: T6, CYP2C9 (Homo sapiens, UniProt P11712); assay: Cocktail assay for CYPs in human liver microsomes, diclofenac 4′-hydroxylation (2C9); assay type: biochemical; details: 5 μM diclofenac, 10 min at 37° C.
T6 construct: 0.1 mg/mL protein human liver microsomes (BD Gentest); tissue BD Gentest; host or cells: human liver microsomes
Protocol: as §1, §2, §3

CYP1A2 = molecular target: T7, CYP1A2 (Homo sapiens, UniProt P05177); assay: Cocktail assay for CYPs in human liver microsomes, phenacetin O-deethylation (1A2); assay type: biochemical; details: 10 μM phenacetin, 10 min at 37° C.
T7 construct: 0.1 mg/mL protein human liver microsomes (BD Gentest); tissue BD Gentest; host or cells: human liver microsomes
T7 sequence (P05177 1-516): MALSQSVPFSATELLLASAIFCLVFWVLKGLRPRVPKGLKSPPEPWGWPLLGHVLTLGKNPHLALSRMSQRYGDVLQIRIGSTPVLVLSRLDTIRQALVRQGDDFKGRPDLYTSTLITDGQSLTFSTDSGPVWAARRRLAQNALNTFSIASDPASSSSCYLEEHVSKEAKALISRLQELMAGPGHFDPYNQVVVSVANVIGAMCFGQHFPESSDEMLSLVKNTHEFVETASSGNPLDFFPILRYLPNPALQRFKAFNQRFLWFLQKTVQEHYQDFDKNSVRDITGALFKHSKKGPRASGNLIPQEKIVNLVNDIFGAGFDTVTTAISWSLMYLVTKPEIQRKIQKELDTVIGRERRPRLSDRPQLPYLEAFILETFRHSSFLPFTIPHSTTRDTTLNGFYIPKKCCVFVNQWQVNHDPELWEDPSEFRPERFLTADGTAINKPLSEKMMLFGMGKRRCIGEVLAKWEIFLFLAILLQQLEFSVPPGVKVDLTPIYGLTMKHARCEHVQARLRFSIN
Protocol: as §1, §2, §3

T1 sequence (P33261 whole entry): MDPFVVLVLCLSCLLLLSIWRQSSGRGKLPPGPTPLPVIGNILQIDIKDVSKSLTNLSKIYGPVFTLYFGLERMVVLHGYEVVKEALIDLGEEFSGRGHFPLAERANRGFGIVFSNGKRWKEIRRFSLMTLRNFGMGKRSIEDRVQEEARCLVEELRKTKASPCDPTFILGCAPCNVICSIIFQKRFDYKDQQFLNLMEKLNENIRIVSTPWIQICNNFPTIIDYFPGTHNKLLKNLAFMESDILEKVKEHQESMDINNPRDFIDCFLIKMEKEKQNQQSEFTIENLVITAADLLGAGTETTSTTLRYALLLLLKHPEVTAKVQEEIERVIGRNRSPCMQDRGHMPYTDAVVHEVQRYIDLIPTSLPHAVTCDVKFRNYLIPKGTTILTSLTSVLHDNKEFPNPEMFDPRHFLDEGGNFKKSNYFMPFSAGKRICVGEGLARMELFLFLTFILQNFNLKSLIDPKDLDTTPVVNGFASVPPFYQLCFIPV
T6 sequence (P11712 whole entry): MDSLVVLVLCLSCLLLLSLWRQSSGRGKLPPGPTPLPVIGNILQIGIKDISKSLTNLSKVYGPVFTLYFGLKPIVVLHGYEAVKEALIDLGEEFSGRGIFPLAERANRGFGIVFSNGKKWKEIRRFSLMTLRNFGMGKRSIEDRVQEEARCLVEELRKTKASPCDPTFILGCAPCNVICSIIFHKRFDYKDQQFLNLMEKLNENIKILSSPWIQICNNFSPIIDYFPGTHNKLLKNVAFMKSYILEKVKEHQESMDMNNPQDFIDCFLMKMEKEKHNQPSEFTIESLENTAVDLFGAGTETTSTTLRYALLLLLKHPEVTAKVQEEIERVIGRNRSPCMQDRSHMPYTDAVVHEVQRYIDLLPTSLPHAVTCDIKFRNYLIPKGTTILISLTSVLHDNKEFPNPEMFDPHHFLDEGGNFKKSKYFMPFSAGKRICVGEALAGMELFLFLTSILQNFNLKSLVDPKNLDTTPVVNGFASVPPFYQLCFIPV
T3 sequence (P08684 whole entry): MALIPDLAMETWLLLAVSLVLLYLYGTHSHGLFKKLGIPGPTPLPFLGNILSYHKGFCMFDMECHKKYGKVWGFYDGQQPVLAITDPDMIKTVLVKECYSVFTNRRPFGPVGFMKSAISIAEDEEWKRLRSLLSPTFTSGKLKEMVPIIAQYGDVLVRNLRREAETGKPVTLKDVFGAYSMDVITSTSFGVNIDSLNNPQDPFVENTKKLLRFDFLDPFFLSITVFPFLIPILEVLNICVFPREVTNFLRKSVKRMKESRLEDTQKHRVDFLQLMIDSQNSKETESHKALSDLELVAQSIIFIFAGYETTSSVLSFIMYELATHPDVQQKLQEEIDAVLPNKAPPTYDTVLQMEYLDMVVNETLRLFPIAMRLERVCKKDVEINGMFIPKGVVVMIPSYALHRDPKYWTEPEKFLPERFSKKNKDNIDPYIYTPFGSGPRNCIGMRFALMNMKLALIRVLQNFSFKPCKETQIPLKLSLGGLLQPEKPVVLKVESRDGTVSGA
T4 sequence (P10635 whole entry): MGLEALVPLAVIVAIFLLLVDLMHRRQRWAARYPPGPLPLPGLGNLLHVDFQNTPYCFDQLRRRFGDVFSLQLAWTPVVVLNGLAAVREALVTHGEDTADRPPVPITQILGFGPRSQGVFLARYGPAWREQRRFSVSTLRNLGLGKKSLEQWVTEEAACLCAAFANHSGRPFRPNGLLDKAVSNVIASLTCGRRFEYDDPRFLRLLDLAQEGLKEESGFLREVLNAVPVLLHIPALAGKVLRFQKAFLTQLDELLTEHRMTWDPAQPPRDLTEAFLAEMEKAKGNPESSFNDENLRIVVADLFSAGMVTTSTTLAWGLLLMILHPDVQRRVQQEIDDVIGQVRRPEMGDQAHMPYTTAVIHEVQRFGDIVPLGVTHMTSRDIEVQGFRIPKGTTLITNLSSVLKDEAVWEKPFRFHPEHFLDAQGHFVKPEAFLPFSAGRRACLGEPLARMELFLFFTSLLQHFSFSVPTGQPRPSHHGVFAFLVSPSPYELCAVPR

SMILES | pIC50 (CYP2C19) | pIC50 (human CYP11B2) | pIC50 (CYP3A4) | pIC50 (CYP2D6) | pIC50 (human CYP11B1) | pIC50 (CYP2C9) | pIC50 (CYP1A2)
C[C@@H](c1ccccc1-c1ccc(F)cc1)n1cncc1C(=O)N1CCC(N2CC[C@H](O)[C@@H](F)C2)CC1 [Compound 13] | < 5.00 | < 4.30 | 8.28 | < 5.00 | 4.64 | < 5.00 | < 5.00
C[C@@H](c1ccccc1-c1ccc(F)cc1)n1cncc1C(=O)N1CCC(N2CC[C@@H](O)[C@H](F)C2)CC1 [Compound 14] | < 5.00 | < 4.30 | 8.21 | < 5.00 | 4.66 | < 5.00 | < 5.00
C[C@@H](c1ccccc1-c1ccc(F)cc1)n1cncc1C(=O)N1CCC(N2C[C@@H](O)[C@H](F)C2)CC1 [Compound 15] | < 5.00 | < 4.30 | 8.39 | < 5.00 | 4.69 | < 5.00 | < 5.00
C[C@@H](c1ccccc1-c1ccc(F)cc1)n1cncc1C(=O)N1CCC(N2C[C@H](O)[C@@H](F)C2)CC1 [Compound 16] | < 5.00 | 4.61 | 8.37 | < 5.00 | 4.99 | < 5.00 | < 5.00
C[C@@H]1CN(C2CCN(C(=O)c3cncn3[C@@H](C)c3ccccc3-c3ccc(F)cc3)CC2)CC[C@@H]1O [Compound 17] | < 5.00 | 4.50 | 8.31 | 5.07 | 4.94 | < 5.00 | < 5.00
C[C@@H]1CN(C2CCN(C(=O)c3cncn3[C@@H](C)c3ccccc3-c3ccc(F)cc3)CC2)CC[C@H]1O [Compound 18] | < 5.00 | < 4.30 | 8.01 | < 5.00 | < 4.30 | < 5.00 | < 5.00
C[C@@H](c1ccccc1-c1ccc(F)cc1)n1cncc1C(=O)N1CCC(N2CCC(F)C(O)C2)CC1 (stereo partly shown) [Compound 19] | < 5.00 | < 4.30 | 8.24 | < 5.00 | 4.49 | < 5.00 | < 5.00
C[C@@H](c1ccccc1-c1ccc(F)cc1)n1cncc1C(=O)N1CCC(N2CCNC(=O)C2)CC1 [Compound 20] | < 5.00 | 4.51 | 8.35 | < 5.00 | 4.77 | < 5.00 | < 5.00
C[C@@H](c1ccccc1-c1ccc(F)cc1)n1cncc1C(=O)N1CCC(N2CCNC(=O)CC2)CC1 [Compound 21] | < 5.00 | < 4.30 | 8.17 | < 5.00 | < 4.30 | < 5.00 | < 5.00
CO[C@H]1CN(C2CCN(C(=O)c3cncn3[C@@H](C)c3ccccc3-c3ccc(F)cc3)CC2)C[C@@H]1O [Compound 22] | < 5.00 | < 4.30 | 8.40 | 5.01 | 4.67 | < 5.00 | < 5.00
CO[C@@H]1CN(C2CCN(C(=O)c3cncn3[C@@H](C)c3ccccc3-c3ccc(F)cc3)CC2)C[C@H]1O [Compound 23] | < 5.00 | < 4.30 | 8.47 | 5.01 | 4.58 | < 5.00 | < 5.00
C[C@@H](c1ccccc1-c1ccc(F)cc1)n1cncc1C(=O)N1CCC(NC2COC[C@H]2O)CC1 (stereo partly shown) [Compound 24] | < 5.00 | < 4.30 | 8.24 | < 5.00 | < 4.30 | < 5.00 | < 5.00
C[C@@H](c1ccccc1-c1ccc(F)cc1)n1cncc1C(=O)N1CCC(NC2CCC(O)CC2)CC1 (stereo partly shown) [Compound 25] | < 5.00 | < 4.30 | 8.04 | 5.23 | < 4.30 | < 5.00 | < 5.00
C[C@@H](c1ccccc1-c1ccc(F)cc1)n1cncc1C(=O)N1CCC(N2CCn3c(nnc3C(F)(F)F)C2)CC1 [Compound 26] | 5.20 | < 4.30 | 8.19 | ≤ 5.00 | 4.84 | < 5.00 | < 5.00
C[C@@H](c1ccccc1-c1ccc(F)cc1)n1cncc1C(=O)N1CCC(N2CCn3ncnc3C2)CC1 [Compound 27] | < 5.00 | 4.62 | 8.24 | < 5.00 | 4.95 | < 5.00 | < 5.00
C[C@@H](c1ccccc1-c1ccc(F)cc1)n1cncc1C(=O)N1CCC(N2CCc3nccnc3C2)CC1 [Compound 28] | < 5.00 | < 4.30 | 8.27 | < 5.00 | 4.83 | < 5.00 | < 5.00

From US9981969B2, “Imidazole derivatives and methods of use thereof for improving the pharmacokinetics of a drug” (MERCK SHARP & DOHME CORP., priority 2013, dated 2018)
